Test results published in patent publication US8487108B2, “Piperidinyl carbamate intermediates for the synthesis of aspartic protease inhibitors” (Vitae Pharmaceuticals, Inc., priority 2005, dated 2013).

Biological target: T1, trypsin-activated recombinant human renin (Homo sapiens, UniProt P00797)
T1 sequence (P00797 67-406): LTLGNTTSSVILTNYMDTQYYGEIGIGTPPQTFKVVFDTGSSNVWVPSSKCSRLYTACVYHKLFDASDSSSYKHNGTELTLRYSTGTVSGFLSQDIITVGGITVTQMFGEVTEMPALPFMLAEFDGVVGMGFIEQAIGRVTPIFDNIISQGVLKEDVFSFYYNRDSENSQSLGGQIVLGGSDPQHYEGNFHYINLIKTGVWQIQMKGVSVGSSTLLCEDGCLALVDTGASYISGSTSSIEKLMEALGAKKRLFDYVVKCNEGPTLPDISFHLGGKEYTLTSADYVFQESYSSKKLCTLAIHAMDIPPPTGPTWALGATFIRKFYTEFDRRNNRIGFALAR
Assay: Renin fluorescence assay (internally quenched peptide substrate)
Format: biochemical
Conditions: compounds I*
Description: The sequence of this peptide corresponds to the sequence of human angiotensinogen. The following test protocol can be used. All reactions are carried out in a flat bottom white opaque microtiter plate. A 4 μL aliquot of 400 μM renin substrate (DABCYL-γ-[…]) in 192 μL assay buffer (50 mM BES, 150 mM NaCl, 0.25 mg/mL bovine serum albumin, pH7.0) is added to 4 μL of test compound in DMSO at various concentrations ranging from 10 μM to 1 nM final concentrations. Next, 100 μL of trypsin-activated recombinant human renin (final enzyme concentration of 0.2-2 nM) in assay buffer is added, and the solution is mixed by pipetting. The increase in fluorescence at 495 nm (excitation at 340 nm) is measured for 60-360 minutes at rt using a Perkin-Elmer Fusion microplate reader. The slope of a linear portion of the plot of fluorescence-increase as a function of time is then determined, and the rate is used for calculating percent inhibition in relation to uninhibited control. […] (Wang G. T. et al. Anal. Biochem. 1993, 210, 351; Nakamura, N. et al. J. Biochem. (Tokyo) 1991, 109, 741; Murakami, K. et al. Anal Biochem. 1981, 110, 232).

Structure (SMILES) | IC50
CNC[C@@H](NC(=O)N1CCC[C@@H]([C@@H](OCCNC(=O)OC)c2ccccc2)C1)[C@@H](O)C1CCCCC1 [I*-19a, methyl 2-((R)—((R)-1-((1S,2R)-1-cyclohexyl-1-hydroxy-3-(methylamino)propan-2-ylcarbamoyl)piperidin-3-yl)(phenyl)methoxy)ethylcarbamate] | < 0.01 µM
CNC[C@H](CC1CCCCCC1)NC(=O)N1CCC[C@@H]([C@@H](OCCNC(=O)OC)c2cccc(Cl)c2)C1 [I*-84a, methyl 2-((R)-(3-chlorophenyl)((R)-1-((S)-1-cycloheptyl-3-(methylamino)propan-2-ylcarbamoyl)piperidin-3-yl)methoxy)ethylcarbamate] | < 0.001 µM
CNC[C@H](CC1(C)CCCCC1)NC(=O)N1CCC[C@@H]([C@@H](OCCNC(=O)OC)c2cccc(Cl)c2)C1 [I*-90a, methyl 2-((R)-(3-chlorophenyl)((R)-1-((S)-1-(methylamino)-3-(1-methylcyclohexyl)propan-2-ylcarbamoyl)piperidin-3-yl)methoxy)ethylcarbamate] | < 0.001 µM
CNC[C@H](C[C@H]1CCC2(CC2)OC1)NC(=O)N1CCC[C@@H]([C@@H](OCCNC(=O)OC)c2cccc(Cl)c2)C1 [I*-158a, methyl 2-((R)-(3-chlorophenyl)((R)-1-((S)-1-((R)-4-oxaspiro[2.5]octan-6-yl)-3-(methylamino)propan-2-ylcarbamoyl)piperidin-3-yl)methoxy)ethylcarbamate] | < 0.01 µM
CN[C@H](CNC(=O)N1CCC[C@@H]([C@@H](OCCNC(=O)OC)c2cc(Cl)ccc2C)C1)C[C@H]1CCCCOC1 [I*-133a, methyl 2-((R)-(5-chloro-2-methylphenyl)((R)-1-((S)-2-(methylamino)-3-((R)-oxepan-3-yl)propylcarbamoyl)piperidin-3-yl)methoxy)ethylcarbamate] | < 0.001 µM
CCC[C@](OCCNC(=O)OC)(c1cccc(Cl)c1)[C@@H]1CCCN(C(=O)N[C@H](CNC)CC2CCCCC2)C1 [I*-150a, methyl 2-((R)-1-(3-chlorophenyl)-1-((R)-1-((S)-1-cyclohexyl-3-(methylamino)propan-2-ylcarbamoyl)piperidin-3-yl)butoxy)ethylcarbamate] | < 0.05 µM
CNC[C@H](CC1CCOCC1)NC(=O)N1CCC[C@@H]([C@@H](OCCNC(=O)OC)c2cc(C)cc(F)c2)C1 [I*-52a, methyl 2-((R)-(3-fluoro-5-methylphenyl)((R)-1-((S)-1-(methylamino)-3-(tetrahydro-2H-pyran-4-yl)propan-2-ylcarbamoyl)piperidin-3-yl)methoxy)ethylcarbamate] | < 0.01 µM
CNC[C@@H](NC(=O)N1CCC[C@@H]([C@@H](OCCNC(=O)OC)c2cccc(F)c2F)C1)[C@@H](O)C1CCCC1 [I*-72a, methyl 2-((R)-((R)-1-((1S,2R)-1-cyclopentyl-1-hydroxy-3-(methylamino)propan-2-ylcarbamoyl)piperidin-3-yl)(2,3-difluorophenyl)methoxy)ethylcarbamate] | < 0.01 µM
CNC[C@H](CC1CCCCC1)NC(=O)N1CCC[C@@H]([C@@H](OCCNC(=O)OC)c2cc(Cl)ccc2C)C1 [I*-85a, methyl 2-((R)-(5-chloro-2-methylphenyl)((R)-1-((S)-1-cyclohexyl-3-(methylamino)propan-2-ylcarbamoyl)piperidin-3-yl)methoxy)ethylcarbamate] | < 0.001 µM
CNC[C@H](C[C@H]1C[C@@H](F)[C@@H](F)C1)NC(=O)N1CCC[C@@H]([C@@H](OCCNC(=O)OC)c2cccc(Cl)c2)C1 [I*-124a, methyl 2-((R)-(3-chlorophenyl)((R)-1-((S)-1-((1r,3S,4R)-3,4-difluorocyclopentyl)-3-(methylamino)propan-2-ylcarbamoyl)piperidin-3-yl)methoxy)ethylcarbamate] | < 0.02 µM
CNC[C@H](CC1CCOCC1)NC(=O)N1CCC[C@@H]([C@@H](OCCNC(=O)OC)c2cc(F)ccc2C)C1 [I*-50a, methyl 2-((R)-(5-fluoro-2-methylphenyl)((R)-1-((S)-1-(methylamino)-3-(tetrahydro-2H-pyran-4-yl)propan-2-ylcarbamoyl)piperidin-3-yl)methoxy)ethylcarbamate] | < 0.01 µM
CNC[C@H](CN1CCCCC1=O)NC(=O)N1CCC[C@@H]([C@@H](OCCNC(=O)OC)c2cccc(F)c2)C1 [I*-46a, methyl 2-((R)-(3-fluorophenyl)((R)-1-((R)-1-(methylamino)-3-(2-oxopiperidin-1-yl)propan-2-ylcarbamoyl)piperidin-3-yl)methoxy)ethylcarbamate] | > 0.05 µM
CNC[C@@H](NC(=O)N1CCC[C@@H]([C@@H](OCCNC(=O)OC)c2cccc(Cl)c2)C1)[C@@H](O)C1CCCC1 [I*-67a, methyl 2-((R)-(3-chlorophenyl)((R)-1-((1S,2R)-1-cyclopentyl-1-hydroxy-3-(methylamino)propan-2-ylcarbamoyl)piperidin-3-yl)methoxy)ethylcarbamate] | < 0.01 µM
CCNC(=O)CO[C@@H](c1cccc(Cl)c1)[C@@H]1CCCN(C(=O)N[C@H](CNC)C[C@H]2CCCOC2)C1 [I*-30a, (R)-3-((R)-(3-chlorophenyl)(2-(ethylamino)-2-oxoethoxy)methyl)-N—((S)-1-(methylamino)-3-((R)-tetrahydro-2H-pyran-3-yl)propan-2-yl)piperidine-1-carboxamide] | < 0.02 µM
CNC[C@H](CC1CCCCC1)NC(=O)N1CCC[C@@H]([C@H](CCCNC(=O)OC)c2cccc(F)c2)C1 [I*-22a, methyl (S)-4-((S)-1-((S)-1-cyclohexyl-3-(methylamino)propan-2-ylcarbamoyl)piperidin-3-yl)-4-(3-fluorophenyl)butylcarbamate] | > 0.05 µM
CNC[C@H](CC1CCCCC1)NC(=O)N1CCC[C@@H]([C@@H](OCCNC(=O)OC)c2cc(F)cc(F)c2O)C1 [I*-114a, methyl 2-((R)—((R)-1-((S)-1-cyclohexyl-3-(methylamino)propan-2-ylcarbamoyl)piperidin-3-yl)(3,5-difluoro-2-hydroxyphenyl)methoxy)ethylcarbamate] | < 0.01 µM
CNC[C@H](C[C@H]1CCCCOC1)NC(=O)N1CCC[C@@H]([C@@H](OCCNC(=O)OC)c2ccccc2F)C1 [I*-57a, methyl 2-((1R)-(2-fluorophenyl)((3R)-1-(1-(methylamino)-3-((R)-oxepan-3-yl)propan-2-ylcarbamoyl)piperidin-3-yl)methoxy)ethylcarbamate] | < 0.01 µM
CNC[C@H](CC1CCCC1)NC(=O)N1CCC[C@@H]([C@@H](OCCNC(=O)OC)c2cccc(F)c2)C1 [I*-5a, methyl 2-((R)—((R)-1-((S)-1-cyclopentyl-3-(methylamino)propan-2-ylcarbamoyl)piperidin-3-yl)(3-fluorophenyl)methoxy)ethylcarbamate] | < 0.01 µM
CN[C@H](CNC(=O)N1CCC[C@@H]([C@@H](OCCNC(=O)OC)c2cc(F)cc(Cl)c2)C1)C[C@H]1CCCCOC1 [I*-143a, methyl 2-((R)-(3-chloro-5-fluorophenyl)((R)-1-((S)-2-(methylamino)-3-((R)-oxepan-3-yl)propylcarbamoyl)piperidin-3-yl)methoxy)ethylcarbamate] | < 0.001 µM
